Experimental data taken from the NIST ThermoML archive (doi:10.1016/j.jct.2004.09.009).

What was measured:
[1] = Liquid; for mass density: 298.15 K, 101.33 kPa, Vibrating tube method; for vapor or sublimation pressure / Normal boiling temperature: Ebulliometric method (Recirculating still)
[2] = xn = mol fraction of the nth substance listed; settings: 101.3 kPa, Liquid

CCC(C)O (stereo not drawn) [butan-2-ol]
[1]
Settings	Normal boiling temperature [°C]	mass density [kg/m3]
–	99.19	802.4

[1]
Settings	vapor or sublimation pressure [kPa]
355.98 K	53.32
358.8 K	59.98
361.41 K	66.64
363.82 K	73.31
366.02 K	79.97
368.13 K	86.64
370.09 K	93.3
370.83 K	95.97
371.54 K	98.63
372.34 K	101.3
373.09 K	103.97
373.79 K	106.63
375.46 K	113.3
377.04 K	119.96
378.57 K	126.63
380.02 K	133.29
381.42 K	139.95
382.76 K	146.62
384.06 K	153.28
385.31 K	159.95
386.52 K	166.61
387.69 K	173.28
388.83 K	179.94
389.94 K	186.61
391 K	193.27
392.05 K	199.93
393.07 K	206.6
394.07 K	213.26
395.06 K	219.93
396.01 K	226.59
396.94 K	233.26
397.86 K	239.92
398.76 K	246.59
399.64 K	253.25
400.48 K	259.91
401.34 K	266.58
402.19 K	273.24
402.98 K	279.91
403.77 K	286.57
404.56 K	293.24
405.32 K	299.9

CCOC(=O)OCC [diethyl carbonate]
[1]
Settings	Normal boiling temperature [°C]	mass density [kg/m3]
–	126.17	969.24

CCOC(=O)OCC [diethyl carbonate] + CC1CCCCC1
mass density [kg/m3], [2]
Settings	293.15 K	298.15 K	303.15 K	308.15 K	313.15 K
x1 = 0.0473	777.44	773.05	768.64	764.22	759.78
x1 = 0.0978	786.43	781.97	777.5	773	768.48
x1 = 0.1985	804.96	800.36	795.73	791.09	786.42
x1 = 0.2968	823.73	818.99	814.23	809.44	804.6
x1 = 0.3924	842.56	837.7	832.8	827.88	822.9
x1 = 0.4993	864.26	859.23	854.18	849.14	844.04
x1 = 0.5999	885.33	880.2	875.04	869.85	864.64
x1 = 0.6985	906.48	901.24	895.95	890.65	885.31
x1 = 0.7988	928.64	923.28	917.88	912.46	907.02
x1 = 0.8996	951.53	946.06	940.54	935.01	929.44
x1 = 0.9509	963.41	957.86	952.29	946.7	941.08
x1 = 1	974.83	969.24	963.61	957.96	952.29

COC(=O)OC [dimethyl carbonate]
[1]
Settings	Normal boiling temperature [°C]	mass density [kg/m3]
–	90.31	1063.36

CC1CCCCC1 [methylcyclohexane]
[1]
Settings	Normal boiling temperature [°C]	mass density [kg/m3]
–	100.92	764.98

[1]
Settings	vapor or sublimation pressure [kPa]
352.46 K	53.32
356.26 K	59.98
359.62 K	66.64
362.83 K	73.31
365.81 K	79.97
368.47 K	86.64
370.99 K	93.3
371.98 K	95.97
373.08 K	98.63
374.07 K	101.3
374.95 K	103.97
375.86 K	106.63
378.04 K	113.3
380.12 K	119.96
382.12 K	126.63
384.05 K	133.29
385.89 K	139.95
387.59 K	146.62
389.36 K	153.28
391.04 K	159.95
392.8 K	166.61
394.38 K	173.28
395.87 K	179.94
397.33 K	186.61
398.76 K	193.27
400.12 K	199.93
401.45 K	206.6
402.8 K	213.26
404.1 K	219.93
405.35 K	226.59
406.56 K	233.26
407.66 K	239.92
408.9 K	246.59
409.98 K	253.25

CC1CCCCC1 [methylcyclohexane] + CCOC(=O)OCC
[2], x2 = 0
Settings	mass density [kg/m3]
293.15 K	769.3
298.15 K	764.98
303.15 K	760.65
308.15 K	756.29
313.15 K	751.93

CC(C)O [propan-2-ol]
[1]
Settings	Normal boiling temperature [°C]	mass density [kg/m3]
–	82.46	780.87

[1]
Settings	vapor or sublimation pressure [kPa]
345.46 K	66.64
347.71 K	73.31
349.79 K	79.97
351.72 K	86.64
353.54 K	93.3
354.01 K	95.04
355.25 K	99.97
355.61 K	101.3
356.27 K	103.97
356.9 K	106.63
358.45 K	113.3
359.91 K	119.96
361.29 K	126.63
362.65 K	133.29
363.94 K	139.95
365.2 K	146.62
366.38 K	153.28
367.56 K	159.95
368.65 K	166.61
369.76 K	173.28
371.81 K	186.61
372.8 K	193.27
373.76 K	199.93
374.69 K	206.6
375.57 K	213.26
376.46 K	219.93
377.29 K	226.59
378.13 K	233.26
378.93 K	239.92
379.71 K	246.59
380.45 K	253.25
381.17 K	259.91
381.89 K	266.58
382.8 K	273.24
383.48 K	279.91
384.11 K	286.57
384.79 K	293.24
385.42 K	299.9
